What was measured:
[1] = n-Octanol-phosphate buffer partition coefficient, log P of the compound at pH 7.4 by shake flask method; type: physicochemical
BT-549 = test: Cytotoxicity against human BT549 cells at 10 uM after 48 hrs by SRB assay; type: functional; conditions: BT-549, 48 h, read-out: GI
T47D = test: Cytotoxicity against human T47D cells at 10 uM after 48 hrs by SRB assay; type: functional; conditions: read-out: GI
Hs-578T = test: Cytotoxicity against human Hs578T cells at 10 uM after 48 hrs by SRB assay; type: functional; conditions: read-out: GI
MCF7 = test: Cytotoxicity against human MCF7 cells at 10 uM after 48 hrs by SRB assay; type: functional; conditions: MCF7, 48 h, read-out: GI
MDA-MB-231 = test: Cytotoxicity against human MDA-MB-231 cells at 10 uM after 48 hrs by SRB assay; type: functional; conditions: MDA-MB-231, 48 h, read-out: GI
UO-31 = test: Cytotoxicity against human UO31 cells at 10 uM after 48 hrs by SRB assay; type: functional; conditions: UO-31, 48 h, read-out: GI
PC-3 = test: Cytotoxicity against human PC3 cells at 10 uM after 48 hrs by SRB assay; type: functional; conditions: PC-3, 48 h, read-out: GI
TK-10 = test: Cytotoxicity against human TK10 cells at 10 uM after 48 hrs by SRB assay; type: functional; conditions: TK-10, 48 h, read-out: GI
A498 = test: Cytotoxicity against human A498 cells at 10 uM after 48 hrs by SRB assay; type: functional; conditions: A498, 48 h, read-out: GI
786-0 = test: Cytotoxicity against human 786-0 cells at 10 uM after 48 hrs by SRB assay; type: functional; conditions: 786-0, 48 h, read-out: GI
NCI/ADR-RES = test: Cytotoxicity against human NCI/ADR-RES cells at 10 uM after 48 hrs by SRB assay; type: functional; conditions: read-out: GI
OVCAR-8 = test: Cytotoxicity against human OVCAR8 cells at 10 uM after 48 hrs by SRB assay; type: functional; conditions: OVCAR-8, 48 h, read-out: GI
OVCAR-5 = test: Cytotoxicity against human OVCAR5 cells at 10 uM after 48 hrs by SRB assay; type: functional; conditions: OVCAR-5, 48 h, read-out: GI
OVCAR-4 = test: Cytotoxicity against human OVCAR4 cells at 10 uM after 48 hrs by SRB assay; type: functional; conditions: OVCAR-4, 48 h, read-out: GI
IGROV-1 = test: Cytotoxicity against human IGROV1 cells at 10 uM after 48 hrs by SRB assay; type: functional; conditions: IGROV-1, 48 h, read-out: GI
UACC-62 = test: Cytotoxicity against human UACC62 cells at 10 uM after 48 hrs by SRB assay; type: functional; conditions: UACC-62, 48 h, read-out: GI
UACC-257 = test: Cytotoxicity against human UACC257 cells at 10 uM after 48 hrs by SRB assay; type: functional; conditions: UACC-257, 48 h, read-out: GI
SK-MEL-28 = test: Cytotoxicity against human SK-MEL-28 cells at 10 uM after 48 hrs by SRB assay; type: functional; conditions: SK-MEL-28, 48 h, read-out: GI
SK-MEL-5 = test: Cytotoxicity against human SK-MEL-5 cells at 10 uM after 48 hrs by SRB assay; type: functional; conditions: SK-MEL-5, 48 h, read-out: GI
SK-MEL-2 = test: Cytotoxicity against human SK-MEL-2 cells at 10 uM after 48 hrs by SRB assay; type: functional; conditions: SK-MEL-2, 48 h, read-out: GI
MDA-MB-435 = test: Cytotoxicity against human MDA-MB-435 cells at 10 uM after 48 hrs by SRB assay; type: functional; conditions: MDA-MB-435, 48 h, read-out: GI
LOX IMVI = test: Cytotoxicity against human LOXIMVI cells at 10 uM after 48 hrs by SRB assay; type: functional; conditions: read-out: GI
SNB-19 = test: Cytotoxicity against human SNB19 cells at 10 uM after 48 hrs by SRB assay; type: functional; conditions: SNB-19, 48 h, read-out: GI
SF-295 = test: Cytotoxicity against human SF295 cells at 10 uM after 48 hrs by SRB assay; type: functional; conditions: SF-295, 48 h, read-out: GI
SW-620 = test: Cytotoxicity against human SW620 cells at 10 uM after 48 hrs by SRB assay; type: functional; conditions: SW-620, 48 h, read-out: GI
KM12 = test: Cytotoxicity against human KM12 cells at 10 uM after 48 hrs by SRB assay; type: functional; conditions: KM12, 48 h, read-out: GI
HT-29 = test: Cytotoxicity against human HT-29 cells at 10 uM after 48 hrs by SRB assay; type: functional; conditions: HT-29, 48 h, read-out: GI
HCT-15 = test: Cytotoxicity against human HCT15 cells at 10 uM after 48 hrs by SRB assay; type: functional; conditions: HCT-15, 48 h, read-out: GI
HCT-116 = test: Cytotoxicity against human HCT116 cells at 10 uM after 48 hrs by SRB assay; type: functional; conditions: HCT-116, 48 h, read-out: GI
COLO 205 = test: Cytotoxicity against human COLO205 cells at 10 uM after 48 hrs by SRB assay; type: functional; conditions: COLO 205, 48 h, read-out: GI
NCI-H522 = test: Cytotoxicity against human NCI-H522 cells at 10 uM after 48 hrs by SRB assay; type: functional; conditions: NCI-H522, 48 h, read-out: GI
NCI-H460 = test: Cytotoxicity against human NCI-H460 cells at 10 uM after 48 hrs by SRB assay; type: functional; conditions: NCI-H460, 48 h, read-out: GI
NCI-H226 = test: Cytotoxicity against human NCI-H226 cells at 10 uM after 48 hrs by SRB assay; type: functional; conditions: NCI-H226, 48 h, read-out: GI
NCI-H23 = test: Cytotoxicity against human NCI-H23 cells at 10 uM after 48 hrs by SRB assay; type: functional; conditions: NCI-H23, 48 h, read-out: GI
HOP-92 = test: Cytotoxicity against human HOP92 cells at 10 uM after 48 hrs by SRB assay; type: functional; conditions: HOP-92, 48 h, read-out: GI
[2] = Cytotoxicity against human EKVX cells at 10 uM after 48 hrs by SRB assay; type: functional; conditions: read-out: GI
A549 = test: Cytotoxicity against human A549 cells at 10 uM after 48 hrs by SRB assay; type: functional; conditions: A549, 48 h, read-out: GI
SR = test: Cytotoxicity against human SR cells at 10 uM after 48 hrs by SRB assay; type: functional; conditions: read-out: GI
MOLT-4 = test: Cytotoxicity against human MOLT4 cells at 10 uM after 48 hrs by SRB assay; type: functional; conditions: MOLT-4, 48 h, read-out: GI
RPMI-8226 = test: Cytotoxicity against human RPMI8226 cells at 10 uM after 48 hrs by SRB assay; type: functional; conditions: RPMI-8226, 48 h, read-out: GI
K562 = test: Cytotoxicity against human K562 cells at 10 uM after 48 hrs by SRB assay; type: functional; conditions: K562, 48 h, read-out: GI

With `C=CCn1c(C)nc2cc(Nc3nc(N4CCOCC4)nc4ccccc34)ccc21` the logD [1] was 2.49, the inhibition of growth at 10 µM (BT-549) was less than 10% and the inhibition of growth at 10 µM (T47D) was less than 10%. It also gave an inhibition of growth at 10 µM (Hs-578T) of less than 10%, an inhibition of growth at 10 µM (MCF7) of less than 10% and an inhibition of growth at 10 µM (MDA-MB-231) of less than 10%. It also gave an inhibition of growth at 10 µM (UO-31) of less than 10%, an inhibition of growth at 10 µM (PC-3) of 11.9% and an inhibition of growth at 10 µM (TK-10) of less than 10%. The inhibition of growth at 10 µM (A498) was 20.7%, the inhibition of growth at 10 µM (786-0) was less than 10% and the inhibition of growth at 10 µM (NCI/ADR-RES) was less than 10%. The inhibition of growth at 10 µM (OVCAR-8) was less than 10%, the inhibition of growth at 10 µM (OVCAR-5) was less than 10% and the inhibition of growth at 10 µM (OVCAR-4) was less than 10%. For the same compound, the inhibition of growth at 10 µM (IGROV-1) was less than 10%, the inhibition of growth at 10 µM (UACC-62) was less than 10% and the inhibition of growth at 10 µM (UACC-257) was less than 10%. The inhibition of growth at 10 µM (SK-MEL-28) was less than 10%, the inhibition of growth at 10 µM (SK-MEL-5) was less than 10% and the inhibition of growth at 10 µM (SK-MEL-2) was less than 10%. The inhibition of growth at 10 µM (MDA-MB-435) was less than 10%, the inhibition of growth at 10 µM (LOX IMVI) was less than 10% and the inhibition of growth at 10 µM (SNB-19) was less than 10%. The inhibition of growth at 10 µM (SF-295) was less than 10%, the inhibition of growth at 10 µM (SW-620) was less than 10% and the inhibition of growth at 10 µM (KM12) was less than 10%. For the same compound, the inhibition of growth at 10 µM (HT-29) was less than 10%, the inhibition of growth at 10 µM (HCT-15) was less than 10% and the inhibition of growth at 10 µM (HCT-116) was less than 10%. It also gave an inhibition of growth at 10 µM (COLO 205) of less than 10%, an inhibition of growth at 10 µM (NCI-H522) of less than 10% and an inhibition of growth at 10 µM (NCI-H460) of less than 10%. For the same compound, the inhibition of growth at 10 µM (NCI-H226) was less than 10%, the inhibition of growth at 10 µM (NCI-H23) was less than 10% and the inhibition of growth at 10 µM (HOP-92) was less than 10%. For the same compound, the inhibition of growth at 10 µM [2] was less than 10%, the inhibition of growth at 10 µM (A549) was less than 10% and the inhibition of growth at 10 µM (SR) was less than 10%. The inhibition of growth at 10 µM (MOLT-4) was less than 10%, the inhibition of growth at 10 µM (RPMI-8226) was 13.4% and the inhibition of growth at 10 µM (K562) was less than 10%.

Reference: ChEMBL document CHEMBL2380212, “Synthesis, single crystal and antitumor activities of benzimidazole-quinazoline hybrids” (Bioorg Med Chem Lett, 2013)
